Measured values from BigSolDB 2.1.

CCOc1nc2cccc(C(=O)OC(C)OC(=O)OC3CCCCC3)c2n1Cc1ccc(-c2ccccc2-c2nn[nH]n2)cc1 (stereo not given)
solubility (mole fraction)
Settings	in 2-butanone	in acetone	in acetonitrile	in ethanol	in isopropanol	in n-propanol
278.15 K	0.00575	0.00383	0.00026	0.00055	0.00026	0.00062
283.15 K	0.00653	0.00467	0.00033	0.00066	0.00037	0.00079
288.15 K	0.00749	0.00566	0.00044	0.00086	0.00052	0.00098
293.15 K	0.0086	0.00673	0.00058	0.00103	0.0007	0.00132
298.15 K	0.01	0.00783	0.00071	0.0013	0.00093	0.00172
303.15 K	0.0118	0.00946	0.00091	0.00163	0.00128	0.00208
308.15 K	0.0138	0.0111	0.00127	0.00203	0.0017	0.00283
313.15 K	0.016	0.0133	0.00159	0.00271	0.00221	0.00373
318.15 K	0.019	0.0155	0.00195	0.00355	0.00298	0.00452
323.15 K	0.0224	0.0182	0.00263	0.00458	0.00391	0.0059
328.15 K	0.0264	–	0.00343	0.00573	0.00526	0.00759
333.15 K	0.031	–	0.00442	0.00772	0.00667	0.00977
